{"source": "patent US20210161999A1", "about": "“COMPOSITIONS AND METHODS RELATED TO OVERCOMING INNATE IMMUNE BARRIERS TO CANCER IMMUNOTHERAPY” (Health Research, Inc., priority 2018, published 2021)", "assay_type_in_all_cases": "cell-based, human", "key": {"[1]": {"system": "PMN suppressor phenotype induced by malignant effusions", "assay": "Coculture of PMN and stimulated T cells with malignant effusions (pleural fluid, ascites) of various metastatic cancers; T cell proliferation", "details": "Cp40-treated malignant pleural fluid/ascites from various metastatic cancers (n=7)", "from_the_text": "We analyzed whether the PMN suppressor phenotype induced by EOC ascites would also occur following PMN exposure to other malignant effusions. We observed a similar PMN suppressor phenotype when PMN and anti-CD3/CD28-stimulated T cells were cocultured with malignant pleural and ascites supernatants from patients with a number of metastatic cancers (18/20 samples induced a PMN suppressor or intermediate suppressor phenotype). Using samples that met the suppressor definition (Table 3), the PMN suppressor phenotype induced by malignant pleural and ascites was also abrogated by Cp40-treatment (FIG. 3K).\nPatients and Specimens. Participants included healthy donors, control female patients with a benign adnexal mass undergoing resection surgery, and cancer patients with malignant effusions. Healthy donors (n=4) were Caucasian, aged 26-51, and equally divided between sexes. […]\nFreshly isolated T cells (1e5) were stimulated with anti-CD3/CD28 Dynabeads (2.5 μl; Thermo Fisher Scientific) and cocultured with autologous PMN (1:1) and ascites supernatants (50% final well volume) in an incubator at 37° C., 5% CO2. […] Cells were harvested onto a Filtermat and counted on a Beta counter. Results are expressed as net cpm [calculated by subtracting the average cpm of unstimulated T cells from the average cpm of stimulated T cells]. […]"}, "TALs": {"system": "TALs", "assay": "Coculture of TALs with autologous ascites and healthy donor PMN; anti-CD3/CD28-stimulated proliferation", "details": "Cp40-ASC; TALs from n=3 patients, PMN from healthy donors", "from_the_text": "FIG. 15. Inhibition of complement C3 activation abrogates the PMN suppressor phenotype induced by malignant effusions. […] The abrogation effect of Cp40 was highly robust, and was observed consistently in at least 10 separate experiments and 15 different ascites samples. […] C) Cryopreserved or fresh TALs (from n=3 patients) were cocultured with autologous ASC and/or PMN from healthy donors. […] Statistics are by ANOVA as compared to +CD3/CD28+ ASC+PMN (*, p<0.05; **, p<0.01; ***, p<0.001).\nInhibition of C3 abrogates neutrophil suppressor phenotype on EOC TALs In patients with metastatic EOC, tumor antigen-specific CD8^+ T cells have impaired effector function and increased co-expression of PD-1 and LAG-3 compared to circulating lymphocytes, and effector function was enhanced with blockade of PD-1 and LAG-3. We confirmed high expression of PD-1 and LAG-3 on TALs from the ascites of patients with newly diagnosed EOC (not shown). We next cocultured cryopreserved or fresh TALs from 3 patients with autologous ascites and/or neutrophils from healthy donors."}, "[2]": {"system": "iC3b/C3b deposition on PMN", "assay": "Deposition of iC3b/C3b on PMN after 1.5 h coculture (clone 3E7/C3b)", "details": "PMN and T cells cocultured in treated ASC for 1.5 h (n=3 ASC)", "method": "FIG. 16. Complement activation in ASC results in C3b/iC3b deposition on PMN and mediates the PMN suppressor phenotype via the AP and classical pathways. A) Activation of complement in ASC principally occurs via the AP and classical pathways, though inter-patient variability was observed. ASC were assessed for complement activity by WIESLAB ELISA kits that detect formation of C5b-9. Percent (%) activity is in relation to the provided positive control (n=38 ASC, **, p=0.0015; ****, p<0.0001). […] C) PMN and T cells were cocultured in media, ASC, Cp40-ASC, or SCR-ASC for 1.5 h. Deposition of iC3b/C3b (clone 3E7/C3b recognizes both C3b and iC3b) on PMN was increased with ASC versus media, while iC3b/C3b deposition on T cells was unaffected by ASC (not shown). iC3b/C3b binding to PMN was decreased by Cp40-ASC, and unaffected by SCR-ASC (n=3 ASC)."}}, "note": "Entries after “also recorded” stand apart in the source; their conditions may differ."}
{"smiles": "CC[C@H](C)[C@H](NC(=O)[C@H](N)Cc1ccc(O)cc1)C(=O)N[C@H]1CSSC[C@@H](C(=O)N(C)[C@H](C(N)=O)[C@@H](C)CC)NC(=O)[C@H](CCCNC(=N)N)NC(=O)[C@H](Cc2c[nH]cn2)NC(=O)[C@H](C)NC(=O)CN(C)C(=O)[C@H](Cc2c[nH]c3ccccc23)NC(=O)[C@H](CC(=O)O)NC(=O)[C@H](CCC(N)=O)NC(=O)[C@H](Cc2cn(C)c3ccccc23)NC(=O)[C@H](C(C)C)NC1=O", "note": "[Cp40]", "values": [{"measurement": "effect on PMN suppressor phenotype induced by malignant effusions", "setting": "[1]", "value": "abrogated by Cp40-treatment in all of the tested samples"}, {"measurement": "effect on suppression of stimulated TAL proliferation", "setting": "TALs", "value": "fully abrogated"}, {"measurement": "iC3b/C3b binding to PMN", "setting": "[2]", "value": "reduced; also recorded: decreased"}]}
